EP4745118A1, “HYDROXAMIC ACID COMPOUND OR PHARMACEUTICALLY ACCEPTABLE SALT THEREOF, AND USE THEREOF AND PREPARATION METHOD THEREFOR” (priority 2023, dated 2025)
In brackets after ≈: the same amount, converted by molar mass. Read-outs that look alike come from different tables or passages of the source.

What was measured:
Experiment in all cases: In vitro antibacterial activity, agar dilution method (MIC)
Type in all cases: cell-based
Shigella flexneri = details: ATCC12022, Shigella flexneri ATCC 12022, 35°C, 18 hours, read-out: MIC
Protocol: According to the relevant operating procedures of the Clinical Laboratory Standards Institute (CLSI) in the United States, an antimicrobial susceptibility testing was conducted using the agar dilution method. A 1920 µg/mL stock solution was serially diluted twofold with sterile water to obtain dilutions of 960, 480, 240, 120, 60, 30, 15, 7.5, 3.75, 1.88, 0.94, 0.47 µg/mL, and 1 mL of the dilution was taken respectively from the dilutions with different concentrations and added to a Petri dish, to which 14 mL of melted MH agar medium was added and mixed thoroughly, and the final concentration of the drug in the petri dish is 128, 64, 32, 16, 8, 4, 2, 1, 0.5, 0.25, 0.12, 0.06, and 0.03 µ g/mL, respectively. The agar was allowed to solidify and set aside for later use.
(§1) The test bacteria were propagated in broth and adjusted to a turbidity of 0.5 McFarland (approximately 1-2 × 10^8 CFU/mL) using a turbidimeter before inoculation. The 0.5 McFarland bacterial solution was then diluted 10-fold in broth (approximately 1-2 × 10^7 CFU/mL). A multipoint inoculator was used to inoculate the above bacterial solution onto a series of plates containing different concentrations of drugs (with an inoculation amount of approximately 10^4 CFU per inoculation site). After incubation at a constant temperature of 35°C for 18 hours, results were observed. The minimum concentration of drugs contained in sterile growth plates was determined as the Minimal Inhibitory Concentration (MIC).

Enterobacter cloacae = test system: Enterobacter cloacae
Protocol: According to the relevant operating procedures of the Clinical Laboratory Standards Institute (CLSI) in the United States, an antimicrobial susceptibility testing was conducted using the agar dilution method. […] The agar was allowed to solidify and set aside for later use.
as §1

Proteus vulgaris = test system: Proteus vulgaris
Protocol: (§2) According to the relevant operating procedures of the Clinical Laboratory Standards Institute (CLSI) in the United States, an antimicrobial susceptibility testing was conducted using the agar dilution method. […]. The agar was allowed to solidify and set aside for later use.
as §1

Escherichia coli = details: Escherichia coli, agar dilution, 35°C
Protocol: as §2, §1

Klebsiella pneumoniae = details: Klebsiella pneumoniae, agar dilution, 35°C
Protocol: as §2, §1

Proteus mirabilis = test system: Proteus mirabilis
Protocol: as §2, §1

Citrobacter freundii = test system: Citrobacter freundii
Protocol: as §2, §1

Enterobacter aerogenes = details: Klebsiella aerogenes
Protocol: as §2, §1

Pseudomonas aeruginosa = test system: Pseudomonas aeruginosa
Protocol: as §2, §1

Serratia marcescens = test system: Serratia marcescens
Protocol: as §2, §1

Pantoea agglomerans = test system: Pantoea agglomerans
Protocol: as §2, §1

[1] = Enterobacter cloacae CDC1000654 (NDM-1-producing), agar dilution, 35°C, 18 hours, read-out: MIC
[2] = ATCC29905, Proteus vulgaris ATCC 29905, agar dilution, 35°C, 18 hours, read-out: MIC
[3] = 18 h, Escherichia coli 13-43 (mcr-1), 18 hours, read-out: MIC
[4] = 18 h, Escherichia coli 17-R28 (CRE, NDM-1-producing), 18 hours, read-out: MIC
[5] = ATCC2469, 18 h, Escherichia coli ATCC 2469 (CRE, NDM-1-producing), 18 hours, read-out: MIC
[6] = ATCC35218, 18 h, Escherichia coli ATCC 35218 (ESBLs-producing), 18 hours, read-out: MIC
[7] = 18 h, Klebsiella pneumoniae 09-20 (mcr-1), 18 hours, read-out: MIC
[8] = 18 h, Klebsiella pneumoniae 17-R27 (CRE), 18 hours, read-out: MIC
[9] = ATCC700603, 18 h, Klebsiella pneumoniae ATCC 700603 (ESBLs-producing), 18 hours, read-out: MIC
[10] = ATCCBAA2146, 18 h, Klebsiella pneumoniae ATCC BAA-2146 (CRE, NDM-1-producing), 18 hours, read-out: MIC
[11] = ATCC49565, Proteus mirabilis ATCC 49565, agar dilution, 35°C, 18 hours, read-out: MIC
[12] = ATCC43864, Citrobacter freundii ATCC 43864, agar dilution, 35°C, 18 hours, read-out: MIC
[13] = ATCC13048, Enterobacter aerogenes ATCC 13048, agar dilution, 35°C, 18 hours, read-out: MIC
[14] = Pseudomonas aeruginosa PAO1, agar dilution, 35°C, 18 hours, read-out: MIC
[15] = ATCC21074, Serratia marcescens ATCC 21074, agar dilution, 35°C, 18 hours, read-out: MIC
[16] = ATCC27993, Pantoea agglomerans ATCC 27993, agar dilution, 35°C, 18 hours, read-out: MIC
[17] = 18 h, Klebsiella pneumoniae 18-8 (ESBLs-producing), 18 hours, read-out: MIC
[18] = ATCCBAA2146, 18 h, Klebsiella pneumoniae ATCC BAA-2146 (CRE, NDM-1-producing), 18 hours

Question: What does the source list for `COCC1CC1C#CC#Cc1ccc(C(=O)N[C@H](C(=O)NO)C(C)(C)N)cc1` (stereo partly shown) [Formula I]?
Answer: MIC (Shigella flexneri): 0.25 µg/mL; MIC (Enterobacter cloacae; [1]): 4 µg/mL; MIC (Proteus vulgaris; [2]): 0.5 µg/mL; MIC (Escherichia coli; [3]): 0.5 µg/mL; MIC (Escherichia coli; [4]): 0.5 µg/mL; MIC (Escherichia coli; [5]): 0.5 µg/mL; MIC (Escherichia coli; [6]): 0.5 µg/mL; MIC (Klebsiella pneumoniae; [7]): 2 µg/mL; MIC (Klebsiella pneumoniae; [8]): 2 µg/mL; MIC (Klebsiella pneumoniae; [9]): 4 µg/mL; MIC (Klebsiella pneumoniae; [10]): 8 µg/mL; MIC (Proteus mirabilis; [11]): 2 µg/mL; MIC (Citrobacter freundii; [12]): 0.5 µg/mL; MIC (Enterobacter aerogenes; [13]): 2 µg/mL; MIC (Pseudomonas aeruginosa; [14]): 2 µg/mL; MIC (Serratia marcescens; [15]): 0.5 µg/mL; MIC (Pantoea agglomerans; [16]): 4 µg/mL

Question: Which results are given for `C[C@@H](O)[C@H]1C(=O)N2C(C(=O)O)=C(SCCN=CN)C[C@H]12` [Imipenem]?
Answer: MIC (Shigella flexneri): 0.12 µg/mL (≈ 0.401 µM); MIC (Enterobacter cloacae; [1]): 2 µg/mL (≈ 6.68 µM); MIC (Proteus vulgaris; [2]): 0.25 µg/mL (≈ 0.835 µM); MIC (Escherichia coli; [3]): 0.12 µg/mL (≈ 0.401 µM); MIC (Escherichia coli; [4]): > 128 µg/mL; MIC (Escherichia coli; [5]): 8 µg/mL (≈ 26.7 µM); MIC (Escherichia coli; [6]): 0.12 µg/mL (≈ 0.401 µM); MIC (Klebsiella pneumoniae; [7]): 0.12 µg/mL (≈ 0.401 µM); MIC (Klebsiella pneumoniae; [8]): 0.12 µg/mL (≈ 0.401 µM); MIC (Klebsiella pneumoniae; [17]): 0.12 µg/mL (≈ 0.401 µM); MIC (Klebsiella pneumoniae; [9]): 0.25 µg/mL (≈ 0.835 µM); MIC (Klebsiella pneumoniae; [10]): 32 µg/mL (≈ 107 µM); MIC (Proteus mirabilis; [11]): 1 µg/mL (≈ 3.34 µM); MIC (Citrobacter freundii; [12]): 0.25 µg/mL (≈ 0.835 µM); MIC (Enterobacter aerogenes; [13]): 0.25 µg/mL (≈ 0.835 µM); MIC (Serratia marcescens; [15]): 0.5 µg/mL (≈ 1.67 µM); MIC (Pantoea agglomerans; [16]): 0.12 µg/mL (≈ 0.401 µM)

Question: Which results are given for `C[C@H]1COc2c(N3CCN(C)CC3)c(F)cc3c(=O)c(C(=O)O)cn1c23` [Levofloxacin]?
Answer: MIC (Shigella flexneri): ≤ 0.03 µg/mL; MIC (Enterobacter cloacae; [1]): 64 µg/mL (≈ 177 µM); MIC (Proteus vulgaris; [2]): ≤ 0.03 µg/mL; MIC (Escherichia coli; [3]): 64 µg/mL (≈ 177 µM); MIC (Escherichia coli; [4]): 8 µg/mL (≈ 22.1 µM); MIC (Escherichia coli; [5]): 16 µg/mL (≈ 44.3 µM); MIC (Escherichia coli; [6]): ≤ 0.03 µg/mL; MIC (Klebsiella pneumoniae; [7]): 16 µg/mL (≈ 44.3 µM); MIC (Klebsiella pneumoniae; [8]): 16 µg/mL (≈ 44.3 µM); MIC (Klebsiella pneumoniae; [17]): 1 µg/mL (≈ 2.77 µM); MIC (Klebsiella pneumoniae; [9]): 1 µg/mL (≈ 2.77 µM); MIC (Klebsiella pneumoniae; [18]): > 128 µg/mL; MIC (Proteus mirabilis; [11]): 0.12 µg/mL (≈ 0.332 µM); MIC (Citrobacter freundii; [12]): ≤ 0.03 µg/mL; MIC (Enterobacter aerogenes; [13]): 0.06 µg/mL (≈ 0.166 µM); MIC (Pseudomonas aeruginosa; [14]): 0.5 µg/mL (≈ 1.38 µM); MIC (Serratia marcescens; [15]): 0.25 µg/mL (≈ 0.692 µM); MIC (Pantoea agglomerans; [16]): 0.06 µg/mL (≈ 0.166 µM)

Question: What does the source list for `CN(C)c1cc(NC(=O)CNC(C)(C)C)c(O)c2c1C[C@H]1C[C@H]3[C@H](N(C)C)C(O)=C(C(N)=O)C(=O)[C@@]3(O)C(O)=C1C2=O` [Tigecycline]?
Answer: MIC (Shigella flexneri): 0.12 µg/mL (≈ 0.205 µM); MIC (Enterobacter cloacae; Enterobacter cloacae, 18 h): 8 µg/mL (≈ 13.7 µM); MIC (Proteus vulgaris; Proteus vulgaris, ATCC29905, 18 h): 2 µg/mL (≈ 3.41 µM); MIC (Escherichia coli; 18 h, Escherichia coli 13-43 (mcr-1)): 1 µg/mL (≈ 1.71 µM); MIC (Escherichia coli; 18 h, Escherichia coli 17-R28 (CRE, NDM-1-producing)): 0.12 µg/mL (≈ 0.205 µM); MIC (Escherichia coli; ATCC2469, 18 h, Escherichia coli ATCC 2469 (CRE, NDM-1-producing), 18 hours): 0.5 µg/mL (≈ 0.854 µM); MIC (Escherichia coli; [6]): 0.12 µg/mL (≈ 0.205 µM); MIC (Klebsiella pneumoniae; 18 h, Klebsiella pneumoniae 09-20 (mcr-1)): 2 µg/mL (≈ 3.41 µM); MIC (Klebsiella pneumoniae; 18 h, Klebsiella pneumoniae 17-R27 (CRE)): 2 µg/mL (≈ 3.41 µM); MIC (Klebsiella pneumoniae; [17]): 2 µg/mL (≈ 3.41 µM); MIC (Klebsiella pneumoniae; [9]): 8 µg/mL (≈ 13.7 µM); MIC (Klebsiella pneumoniae; [18]): 8 µg/mL (≈ 13.7 µM); MIC (Proteus mirabilis; Proteus mirabilis, ATCC49565, 18 h): 4 µg/mL (≈ 6.83 µM); MIC (Citrobacter freundii; Citrobacter freundii, ATCC43864, 18 h): 1 µg/mL (≈ 1.71 µM); MIC (Enterobacter aerogenes; ATCC13048, 18 h): 1 µg/mL (≈ 1.71 µM); MIC (Pseudomonas aeruginosa; Pseudomonas aeruginosa, PAO1, 18 h): 16 µg/mL (≈ 27.3 µM); MIC (Serratia marcescens; Serratia marcescens, ATCC21074, 18 h): 2 µg/mL (≈ 3.41 µM); MIC (Pantoea agglomerans; Pantoea agglomerans, ATCC27993, 18 h): 0.5 µg/mL (≈ 0.854 µM)
